From patent publication US20240309365A1, “MODULATING TRANSCRIPTIONAL CONDENSATES” (Whitehead Institute for Biomedical Research, priority 2020, published 2024) come the findings set out here.

Experiment [1] has as its system Med1-GFP condensates in mESCs. Briefly: Condensate size in Med1-GFP mESCs after transcription inhibition. Format: cell-based, mouse. The note with it: 30 minutes; 100 μM DRB or 1 μM Actinomycin-D; 3D super-resolution microscopy. The procedure:
(§1) For small molecule inhibition experiments, cells were treated with 100 μM DRB (Sigma), or 1 μM Actinomycin-D (Sigma) in 2i media (detailed above) for 30 minutes, then imaged. For wash-out experiments, media was replaced with fresh 2i media and cells were allowed to recover for 1 hour, then the cells were imaged.
Cells with endogenously-tagged Med1-GFP (Sabari et al., 2018) were plated on glass-bottom dishes (Mattek) coated with poly-L-ornithine (Sigma) and laminin (ThermoFisher). Mock (DMSO) and treated cells were imaged on a LSM 880 Confocal Microscope with Airyscan to obtain super-resolution z-stacks for at least 8 different fields containing multiple cells. For quantification, a manual threshold was applied equally across all conditions to remove background, and the size of Med1-GFP puncta was quantified in 3D using the 3D object counter plugin (Fiji/ImageJ).

Experiment [2] concerns Med19 condensates in mESCs. Briefly: Condensate lifetime in Med19-Halo mESCs by tcPALM. Format: cell-based, mouse. The procedure:
as §1
HaloTag was endogenously knocked into 5′-end of Med19 via homology-directed repair (HDR) in mouse embryonic stem cells (R1 mESCs). Three single-guide RNAs (sgRNAs) targeting+/−100 bps from the start codons of Med19 gene were designed using the web-based CRISPR Design tool (http://crispr.mit.edu) and integrated into a Streptococcus pyogenes Cas9 vector (Addgene #62988) for standard CRISPR/Cas9 editing. Single positive colonies were sorted by fluorescence-activated cell sorting (FACS) and validated under the microscope. […]
Photo-activation localization microscopy (PALM) imaging was performed using a Nikon Eclipse Ti microscope with a 100× oil immersion objective (NA 1.40) (Nikon, Tokyo, Japan). […] Med19-Halo cluster lifetimes were calculated as previously described using the qSR software (dark time tolerance=20 frames, min cluster size=50) (Andrews et al., 2018), and a cumulative distribution was generated using Prism software (GraphPad).

`OC[C@H]1O[C@@H](n2cnc3cc(Cl)c(Cl)cc32)[C@H](O)[C@@H]1O` [DRB]: the “increase in volume of Med1-GFP condensates” value in experiment [1] is roughly 2 fold. The “lifetime of Med19 condensates versus mock-treated cells” value in experiment [2] (100 μM DRB, 30 minutes, tcPALM) is on record as “significantly longer lifetimes”. Also, in experiment [2] (DRB-treated cells washed, 1 hour recovery), the “lifetime of Med19 condensates after wash with fresh media” value is given as “recovered to those of the mock-treated condition”.
